Experimental data published in ChEMBL document CHEMBL1148963, “Four new eudesmanes from Caragana intermedia and their biological activities” (J Nat Prod, 2004).
Values after ≈ are worked out from the molar mass of the structure shown.

Experiments:
[1] = system: Human immunodeficiency virus 1; experiment: Antiviral activity against HIV1 3B infected in human MT2 cells; assay type: functional, organism-based; settings: Human immunodeficiency virus 1, 3B
[2] = system: Pyricularia oryzae; experiment: Antimicrobial activity against Pyricularia oryzae P-2b; assay type: functional
[3] = system: C2C12; experiment: Increase in glucose consumption in mouse C2C12 cells assessed as improved glucose transformation; assay type: functional, cell-based

**Q.** How did the IC50 [1] turn out when C=C1CC[C@@H](O)[C@]2(C)CC[C@H](C(C)C)[C@@H](O)[C@H]12 was run?
**A.** The IC50 was 10 µg/mL (≈ 42 µM).

**Q.** Which results are given for C=C1CC[C@@H](O)[C@]2(C)CC[C@@H](C(C)C)C[C@@]12O?
**A.** MIC [2]: 20 µg/mL (≈ 83.9 µM); IC50 [3]: 10.7 µg/mL (≈ 44.9 µM)

**Q.** C=C1CC[C@@H](O)[C@]2(C)CC[C@](O)(C(C)C)C[C@@H]12 was tested. Which MIC [2] did it give?
**A.** The MIC was 16 µg/mL (≈ 67.1 µM).

**Q.** C=C1CC[C@@H](O)[C@]2(C)CC[C@@](O)(C(C)C)C[C@@H]12 was tested. Which MIC [2] did it give?
**A.** The MIC was 12 µg/mL (≈ 50.3 µM).
